The record followed here is US9999616B2 (ZENITH EPIGENETICS LTD., priority 2013, dated 2018).

Assay [1] deals with c-myc in Human AML MV4-11 cells. The experiment in a line: Inhibition of cMYC expression (mRNA, real-time PCR) in MV4-11 cells. Format: cell-based. Conditions: 3 h treatment, cMYC mRNA by real-time PCR. The gist of the method:
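MV4-11 cells in IMDM with 10% FBS were treated with increasing compound concentrations (DMSO 0.1%) for 3 h at 37 °C, in triplicate. Isolated mRNA was quantified by one-step TaqMan RT-qPCR, cMYC Ct normalized to cyclophilin, and fold expression given relative to DMSO control.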
For orientation: Quantitative PCR measures a nucleic acid by following its amplification.

The next assay deals with MV4-11 cells. The experiment in a line: In vivo efficacy in athymic nude mouse acute myeloid leukemia xenograft model using MV4-11 cells. As to conditions: athymic nude mouse AML xenograft (MV4-11), oral dosing. Here is the method:
MV4-11 cells (ATCC) were grown under standard cell culture conditions and (NCr) nu/nu fisol strain of female mice age 6-7 weeks were injected with 5×10^6 cells/animal in 100 μL PBS+100 μL Matrigel in the lower left abdominal flank. By approximately day 18-21 after MV4-11 cells injection, mice were randomized based on tumor volume (L×W×H)/2) of average ˜100-300 mm^3. Mice were dosed orally with compound at 5 to 120 mg/kg b.i.d and/or q.d. on a continuous dosing schedule and at 2.5 to 85 mg/kg q.d. on a 5 day on 2 day off, 100 mg/kg q.d. on a 4 day on and 3 day off, 135 mg/kg q.d. on a 3 day on and 4 day off, 180 mg/kg on a 2 day on and 5 day off and 240 mg/kg on a 1 day on and 6 days off dosing schedules in EA006 formulation at 10 mL/kg body weight dose volume. Tumor measurements were taken with electronic micro calipers and body weights measured on alternate days beginning from dosing period. The average tumor volumes, percent Tumor Growth Inhibition (TGI) and % change in body weights were compared relative to Vehicle control animals. The means, statistical analysis and the comparison between groups were calculated using Student's t-test in Excel.

The next assay relates to MM1.s cells. The experiment in a line: In vivo efficacy in multiple myeloma xenograft model using MM1.s cells. Also noted: species or system mouse. As to conditions: mice, oral 25 to 90 mg/kg. The procedure: MM1.s cells (ATCC) were grown under standard cell culture conditions and SCID-Beige strain of female mice age 6-7 weeks were injected with 10×10^6 cells/animal in 100 μL PBS+100 μL Matrigel in the lower left abdominal flank. By approximately day 21 after MM1.s cells injection, mice were randomized based on tumor volume (L×W×H)/2) of average 120 mm^3. Mice were dosed orally with compound at 25 to 90 mg/kg b.i.d and or q.d in EA006 formulation at 10 mL/kg body weight dose volume. Tumor measurements were taken with electronic micro calipers and body weights measured on alternate days beginning from dosing period. The average tumor volumes, percent Tumor Growth Inhibition (TGI) and % change in body weights were compared relative to Vehicle control animals. The means, statistical analysis and the comparison between groups were calculated using Student's t-test in Excel.

The target in assay [2] is Brd4 bromodomain 1 (BRD4(1)) (Homo sapiens, UniProt O60885). The experiment in a line: Inhibition of tetra-acetylated histone H4 binding to Brd4 bromodomain 1, measured by FRET (HTRF). Also noted: made in house; host or cells: E. coli BL21(DE3). As to conditions: 2 h at room temperature. The method, boiled down: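 Inhibition was read as a drop in 665 nm relative to 620 nm HTRF signal after 2 h at room temperature, with IC50 from dose-response curves in duplicate wells. Reactions held 200 nM E. coli-expressed His-tagged bromodomain and 25-50 nM biotinylated tetra-acetylated histone H4 peptide. Buffer was 30 mM HEPES pH 7.4 with KF, CHAPS, BSA and 0.2% DMSO.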

The next assay has as its system hApoA-1 mRNA. The experiment in a line: Up-regulation of hApoA-1 mRNA transcription in Huh7 cells. Format: cell-based. As to conditions: Homo sapiens, Huh-7, EC170 of hApoA-1 mRNA up-regulation, 48 h, read-out: ApoA-1 activity. The procedure: Huh7 cells (2.5×10^5 per well) were plated in a 96-well plate using 100 μL DMEM per well, (Gibco DMEM supplemented with penicillin/streptomycin and 10% FBS), 72 h before the addition of the compound. The cells are treated with increasing concentrations of the compound or DMSO (0.1%), and incubated at 37° C., 5% CO2 for 48 h. Spent media was removed from the Huh-7 cells and placed on ice for immediate use with the “LDH cytotoxicity assay Kit II” from Abcam. The cells remaining in the plate were rinsed with 100 μL PBS. Cells were harvested using the mRNA Catcher PLUS kit according to manufacturer's instructions. The eluted mRNA was then used in a one-step quantitative real-time PCR reaction, using components of the RNA UltraSense™ One-Step Kit (Life Technologies) together with Applied Biosystems TaqMan® primer-probes for hApoA-1 and Cyclophilin. Real-time PCR plates were run on a ViiA™7 real time PCR machine (Applied Biosystems), data was analyzed, normalizing the Ct values for hApoA-1 to an internal control, prior to determining the fold induction of each unknown sample, relative to the control.

In the case of `Cc1nc2c(-c3cccnc3C)cc(-c3c(C)noc3C)cc2[nH]1` [Example Compound 41, 3,5-dimethyl-4-(2-methyl-4-(2-methylpyridin-3-yl)-1H-benzo[d]imidazol-6-yl)isoxazole], the IC50 in assay [1] is 300 to 3000 nM; in assay [2], ≤ 300 nM. Further, the In vivo activity result in the assay on MV4-11 cells and with MM1.s cells was “Active” in each case. Also, the EC170 with hApoA-1 mRNA was ≤ 0.3 µM.
On to `Cc1nc2c(-c3c(C)noc3C)cc(-c3c(C)noc3C)cc2[nH]1` [Example Compound 6, 4,4′-(2-methyl-1H-benzo[d]imidazole-4,6-diyl)bis(3,5-dimethylisoxazole)], for which the concentration for half-maximal inhibition (IC50) in assay [1] is 300 to 3000 nM; in assay [2], ≤ 300 nM. Also, the In vivo activity result in the assay on MV4-11 cells and in the assay with MM1.s cells was “Active” throughout.
Turning to `Cc1nc2c(-c3c(C)nn(C)c3C)cc(-c3c(C)noc3C)cc2[nH]1` [Example Compound 49, 3,5-dimethyl-4-(2-methyl-4-(1,3,5-trimethyl-1H-pyrazol-4-yl)-1H-benzo[d]imidazol-6-yl)isoxazole], the IC50 in assay [1] and in assay [2] was ≤ 300 nM each time. In the assay on MV4-11 cells, the In vivo activity entry is given as “Active”. Also, the EC170 in the assay on hApoA-1 mRNA was ≤ 0.3 µM.
In the case of `Cc1noc(C)c1-c1cc(-c2c(C)noc2C)c2nc[nH]c2c1` [Example Compound 1, 4,4′-(1H-benzo[d]imidazole-4,6-diyl)bis(3,5-dimethylisoxazole)], the figures for the half-maximal inhibitory concentration (IC50) in assay [1] and in assay [2] were 300 to 3000 nM and ≤ 300 nM, respectively. The In vivo activity entry in the assay on MV4-11 cells and in the assay on MM1.s cells was “Active” in each case. In the assay on hApoA-1 mRNA, the EC170 fell in the range of 0.3 to 3 µM.

As usually defined, the IC50 is the concentration at which inhibition is half-maximal.
